Reference: ChEMBL document CHEMBL1144507, “Synthesis and antifungal activity of (Z)-5-arylidenerhodanines” (2007)
Converted amounts (≈) assume the structure as drawn.

Experiments:
[1] = system: Nannizzia gypsea; test: Antifungal activity against Microsporum gypseum C115 after 48 hrs; assay type: functional
[2] = system: Trichophyton rubrum; test: Antifungal activity against Trichophyton rubrum C113 after 48 hrs; assay type: functional
[3] = system: Trichophyton benhamiae; test: Antifungal activity against Trichophyton mentagrophytes ATCC 9972 after 48 hrs; assay type: functional, Arthroderma benhamiae; conditions: ATCC 9972, 48 h
[4] = system: Candida albicans; test: Antifungal activity against Candida albicans ATCC 10231 after 48 hrs; assay type: functional; conditions: ATCC 10231, 48 h
[5] = system: Saccharomyces cerevisiae; test: Antifungal activity against Saccharomyces cerevisiae ATCC 9763 after 48 hrs; assay type: functional; conditions: ATCC 9763, 48 h
[6] = system: Cryptococcus neoformans; test: Antifungal activity against Cryptococcus neoformans ATCC 32264 after 48 hrs; assay type: functional; conditions: ATCC 32264, 48 h
[7] = system: Aspergillus niger; test: Antifungal activity against Aspergillus niger ATCC 9029 after 48 hrs; assay type: functional; conditions: ATCC 9029, 48 h
[8] = system: Aspergillus fumigatus; test: Antifungal activity against Aspergillus fumigatus ATCC 26934 after 48 hrs; assay type: functional; conditions: ATCC 26934, 48 h
[9] = system: Aspergillus flavus; test: Antifungal activity against Aspergillus flavus ATCC 9170 after 48 hrs; assay type: functional; conditions: ATCC 9170, 48 h
[10] = system: Candida albicans; test: Antifungal activity against Candida albicans C125-2000 after 48 hrs; assay type: functional
[11] = system: Candida albicans; test: Antifungal activity against Candida albicans C126-2000 after 48 hrs; assay type: functional
[12] = system: Candida albicans; test: Antifungal activity against Candida albicans C127-2000 after 48 hrs; assay type: functional
[13] = system: Candida albicans; test: Antifungal activity against Candida albicans C128-2000 after 48 hrs; assay type: functional
[14] = system: Candida albicans; test: Antifungal activity against Candida albicans C130-2000 after 48 hrs; assay type: functional
[15] = system: Nakaseomyces glabratus; test: Antifungal activity against Candida glabrata C115-2000 after 48 hrs; assay type: functional
[16] = system: Candida parapsilosis; test: Antifungal activity against Candida parapsilosis C124-2000 after 48 hrs; assay type: functional; conditions: Lodderomyces parapsilosis
[17] = system: Clavispora lusitaniae; test: Antifungal activity against Candida lusitaniae C131-2000 after 48 hrs; assay type: functional
[18] = system: Torulaspora delbrueckii; test: Antifungal activity against Candida coliculosa C122-2000 after 48 hrs; assay type: functional
[19] = system: Pichia kudriavzevii; test: Antifungal activity against Candida krusei C117-2000 after 48 hrs; assay type: functional
[20] = system: Kluyveromyces marxianus; test: Antifungal activity against Candida kefyr C123-2000 after 48 hrs; assay type: functional
[21] = system: Candida tropicalis; test: Antifungal activity against Candida tropicalis C131-1997 after 48 hrs; assay type: functional
[22] = system: Cryptococcus neoformans; test: Antifungal activity against […] ATCC 32264 after 48 hrs; assay type: functional; conditions: ATCC 32264, 48 h
[23] = system: Cryptococcus neoformans; test: Antifungal activity against Candida neoformans IM 983040 after 48 hrs; assay type: functional
[24] = system: Cryptococcus neoformans; test: Antifungal activity against […] IM 972724 after 48 hrs; assay type: functional
[25] = system: Cryptococcus neoformans; test: Antifungal activity against […] IM 042074 after 48 hrs; assay type: functional
[26] = system: Cryptococcus neoformans; test: Antifungal activity against […] IM 983036 after 48 hrs; assay type: functional
[27] = system: Cryptococcus neoformans; test: Antifungal activity against […] IM 00319 after 48 hrs; assay type: functional
[28] = system: Cryptococcus neoformans; test: Antifungal activity against […] IM 972751 after 48 hrs; assay type: functional
[29] = system: Cryptococcus neoformans; test: Antifungal activity against […] IM 031631 after 48 hrs; assay type: functional
[30] = system: Cryptococcus neoformans; test: Antifungal activity against […] IM 031706 after 48 hrs; assay type: functional
[31] = system: Cryptococcus neoformans; test: Antifungal activity against […] IM 961951 after 48 hrs; assay type: functional
[32] = system: Cryptococcus neoformans; test: Antifungal activity against […] IM 052470 after 48 hrs; assay type: functional

SMILES	MIC [1]	MIC [2]	MIC [3]	MIC [4]	MIC [5]	MIC [6]	MIC [7]	MIC [8]	MIC [9]	further results
O=C1NC(=S)S/C1=C\[n+]1ccccc1	> 250 µg/mL	> 250 µg/mL	> 250 µg/mL	> 250 µg/mL	> 250 µg/mL	> 250 µg/mL	> 250 µg/mL	> 250 µg/mL	> 250 µg/mL	
CC(=O)N1CCN(c2ccc(OCC3COC(Cn4ccnc4)(c4ccc(Cl)cc4Cl)O3)cc2)CC1 (stereo not drawn) [KETOCONAZOLE]										MFC [10]: 6.25 µg/mL (≈ 11.8 µM); MFC [11]: 1.56 µg/mL (≈ 2.94 µM); MFC [12]: 6.25 µg/mL (≈ 11.8 µM); MFC [13]: 6.25 µg/mL (≈ 11.8 µM); MFC [14]: 6.25 µg/mL (≈ 11.8 µM); MFC [15]: 1.56 µg/mL (≈ 2.94 µM); MFC [16]: 0.78 µg/mL (≈ 1.47 µM); MFC [17]: 25 µg/mL (≈ 47 µM); MFC [18]: 0.78 µg/mL (≈ 1.47 µM); MFC [19]: 50 µg/mL (≈ 94.1 µM); MFC [20]: 0.78 µg/mL (≈ 1.47 µM); MFC [21]: 0.125 µg/mL (≈ 0.235 µM); MFC [22]: 0.25 µg/mL (≈ 0.47 µM)
C[C@@H](c1ncncc1F)[C@](O)(Cn1cncn1)c1ccc(F)cc1F [VORICONAZOLE]										MFC [23]: < 0.015 µg/mL; MFC [24]: < 0.015 µg/mL; MFC [25]: < 0.015 µg/mL; MFC [26]: < 0.015 µg/mL; MFC [27]: < 0.015 µg/mL; MFC [28]: 0.03 µg/mL (≈ 0.0859 µM); MFC [29]: 0.25; MFC [30]: 0.5 µg/mL (≈ 1.43 µM); MFC [31]: 0.015 µg/mL (≈ 0.0429 µM); MFC [32]: 0.03 µg/mL (≈ 0.0859 µM)
O=C1NC(=S)S/C1=C\c1ccc(Br)cc1	> 250 µg/mL	> 250 µg/mL	> 250 µg/mL	> 250 µg/mL	250 µg/mL (≈ 833 µM)	62.5 µg/mL (≈ 208 µM)	> 250 µg/mL	> 250 µg/mL	> 250 µg/mL	
O=C1NC(=S)S/C1=C\c1ccc2c(c1)OCO2	> 250 µg/mL	> 250 µg/mL	> 250 µg/mL	> 250 µg/mL	> 250 µg/mL	> 250 µg/mL	> 250 µg/mL	> 250 µg/mL	> 250 µg/mL	
COc1ccc(/C=C2\SC(=S)NC2=O)cc1	> 250 µg/mL	> 250 µg/mL	> 250 µg/mL	> 250 µg/mL	> 250 µg/mL	> 250 µg/mL	> 250 µg/mL	> 250 µg/mL	> 250 µg/mL	
O=C1NC(=S)S/C1=C\c1ccccc1F	3.9 µg/mL (≈ 16.3 µM)	3.9 µg/mL (≈ 16.3 µM)	3.9 µg/mL (≈ 16.3 µM)	250 µg/mL (≈ 1040 µM)	250 µg/mL (≈ 1040 µM)	15.6 µg/mL (≈ 65.2 µM)	> 250 µg/mL	> 250 µg/mL	> 250 µg/mL	
